According to patent US10188634B2, “3-(3H-imidazo[4,5-C]pyridin-2-yl)-1 H-pyrazolo[4,3-B]pyridines and therapeutic uses thereof” (Samumed, LLC, priority 2015, dated 2019):

Experiments:
[1] = test system: LL29 cells (primary human fibroblasts derived from IPF patients) treated with TGF-β1, α-smooth muscle actin; assay: Inhibition of the fibrotic process: αSMA staining in TGF-β1 treated primary human fibroblasts from IPF patients (LL29 cells); format: cell-based; details: Fibroblast, 96 h; for EC50: LL29 cells treated with TGF-β1 (20 ng/mL), 4 days; for inhibition at 10 µM: LL29 cells treated with TGF-β1, 4 days, read-out: percent inhibition in brackets (given for EC50 >10 μM)
[2] = test system: IL-6 in THP-1 cells; assay: Inhibition of IL-6 in LPS-stimulated THP-1 human monocyte cells (HTRF); format: cell-based; details: IL-6 HTRF; for EC50: 500 ng/mL LPS, 22 hours; for inhibition at 10 µM: LPS, read-out: percent inhibition in brackets (given for EC50 >10 μM)
Outline: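 IL-6 was quantified by HTRF ratio after LPS (500 ng/mL, 22 h) stimulation of THP-1 monocytes pretreated 2 h with compound, 10-point 1:3 dilutions from 10 μM, 0.1% DMSO. Cells were held in 1% FBS for 24 h beforehand. Values normalised to DMSO; four-parameter EC50, or % inhibition at 10 μM above that.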

EC50 [2] [µM]	SMILES	EC50 [1] [µM]	inhibition at 10 µM [1] [%]	inhibition at 10 µM [2] [%]
> 10	COc1cccc(-c2cncc3[nH]c(-c4n[nH]c5ccc(-c6cn[nH]c6)nc45)nc23)c1 [Compound 975, 3-(7-(3-Methoxylphenyl)-3H-imidazo[4,5-c]pyridin-2-yl)-5-(1H-pyrazol-4-yl)-1H-pyrazolo[4,3-b]pyridine]	> 10	43.2	0
0.371	c1cncc(-c2cncc3[nH]c(-c4n[nH]c5ccc(-c6cncc(OC7CCCCC7)c6)nc45)nc23)c1 [Compound 531, 5-(5-(Cyclohexyloxy)pyridin-3-yl)-3-(7-(pyridin-3-yl)-3H-imidazo[4,5-c]pyridin-2-yl)-1H-pyrazolo[4,3-b]pyridine]	3.2		
> 10	Cc1ncc(-c2ccc3[nH]nc(-c4nc5c(-c6cccc(F)c6)cncc5[nH]4)c3n2)n1C [Compound 481, 5-(1,2-Dimethyl-1H-imidazol-5-yl)-3-(7-(3-fluorophenyl)-3H-imidazo[4,5-c]pyridin-2-yl)-1H-pyrazolo[4,3-b]pyridine]	> 10	4.5	48.3
> 10	Cn1cc(-c2ccc3[nH]nc(-c4nc5c(-c6ccc(F)cc6)cncc5[nH]4)c3n2)c(CO)n1 [Compound 1084, (4-(3-(7-(4-Fluorophenyl)-3H-imidazo[4,5-c]pyridin-2-yl)-1H-pyrazolo[4,3-b]pyridin-5-yl)-1-methyl-1H-pyrazol-3-yl)methanol]	2.3		4.1
> 10	c1cc(-c2cncc3[nH]c(-c4n[nH]c5ccc(-c6cnccn6)nc45)nc23)ccn1 [Compound 556, 5-(Pyrazin-2-yl)-3-(7-(pyridin-4-yl)-3H-imidazo[4,5-c]pyridin-2-yl)-1H-pyrazolo[4,3-b]pyridine]	0.014		0
> 10	CCC(=O)Nc1cncc(-c2ccc3[nH]nc(-c4nc5c(-c6cccs6)cncc5[nH]4)c3n2)c1 [Compound 309, N-(5-(3-(7-(Thiophen-2-yl)-3H-imidazo[4,5-c]pyridin-2-yl)-1H-pyrazolo[4,3-b]pyridin-5-yl)pyridin-3-yl)propionamide]	> 10	0	31.2

Second part, the compound before the results:

SMILES	EC50 [2] [µM]	EC50 [1] [µM]	inhibition at 10 µM [1] [%]	inhibition at 10 µM [2] [%]
CCCC(=O)Nc1cncc(-c2ccc3[nH]nc(-c4nc5c(-c6ccncc6)cncc5[nH]4)c3n2)c1 [Compound 129, N-(5-(3-(7-(Pyridin-4-yl)-3H-imidazo[4,5-c]pyridin-2-yl)-1H-pyrazolo[4,3-b]pyridin-5-yl)pyridin-3-yl)butyramide]	> 1	> 10	0	18.7
CC(C)(C)CC(=O)Nc1cncc(-c2ccc3[nH]nc(-c4nc5c(-c6ccccc6F)cncc5[nH]4)c3n2)c1 [Compound 72, N-(5-(3-(7-(2-fluorophenyl)-3H-imidazo[4,5-c]pyridin-2-yl)-1H-pyrazolo[4,3-b]pyridin-5-yl)pyridin-3-yl)-3,3-dimethylbutanamide]	> 10	> 10	0	29.8
CCC(=O)Nc1cncc(-c2ccc3[nH]nc(-c4nc5c(N6CCCCC6)cncc5[nH]4)c3n2)c1 [Compound 169, N-(5-(3-(7-(Piperidin-1-yl)-3H-imidazo[4,5-c]pyridin-2-yl)-1H-pyrazolo[4,3-b]pyridin-5-yl)pyridin-3-yl)propionamide]	> 10	> 10	3	25.6
Cc1cn(-c2cncc3[nH]c(-c4n[nH]c5ccc(-c6cncc(NC(=O)C(C)(C)C)c6)nc45)nc23)cn1 [Compound 204, N-(5-(3-(7-(4-methyl-1H-imidazol-1-yl)-3H-imidazo[4,5-c]pyridin-2-yl)-1H-pyrazolo[4,3-b]pyridin-5-yl)pyridin-3-yl)pivalamide]	> 10	> 10	0	24.5
